Experimental data reported in patent US10738043B2, “GLS1 inhibitors for treating disease” (Board of Regents, The University of Texas System, priority 2015, dated 2020).

Assays:
[1] = target: T1, GLS1 (purified recombinant human GAC) (Homo sapiens, UniProt O94925); test: GLS1 Enzymatic Activity Assay (dual-coupled enzymatic assay); type: biochemical; details: 50 mM potassium phosphate, 1 mM glutamine, read-out: IC50 against GLS1
T1 sequence (O94925 55-598 isoform O94925-3 limits assumed): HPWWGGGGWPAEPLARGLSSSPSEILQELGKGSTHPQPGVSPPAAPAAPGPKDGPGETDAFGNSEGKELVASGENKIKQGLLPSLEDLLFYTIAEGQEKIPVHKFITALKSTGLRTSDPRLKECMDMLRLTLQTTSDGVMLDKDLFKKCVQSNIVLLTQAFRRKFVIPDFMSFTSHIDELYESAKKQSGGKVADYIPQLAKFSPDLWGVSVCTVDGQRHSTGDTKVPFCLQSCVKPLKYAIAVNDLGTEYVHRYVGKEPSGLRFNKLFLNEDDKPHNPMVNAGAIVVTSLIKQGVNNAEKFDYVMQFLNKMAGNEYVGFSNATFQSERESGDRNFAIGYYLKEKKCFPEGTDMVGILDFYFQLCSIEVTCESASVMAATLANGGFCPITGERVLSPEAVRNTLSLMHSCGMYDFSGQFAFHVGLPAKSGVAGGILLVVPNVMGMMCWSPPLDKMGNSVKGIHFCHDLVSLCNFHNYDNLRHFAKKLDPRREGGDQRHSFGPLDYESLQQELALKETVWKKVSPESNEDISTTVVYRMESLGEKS
Description: GLS1 Enzymatic Activity Assay
The inhibition of purified recombinant human GAC by varying concentrations of inhibitors is assessed via a dual-coupled enzymatic assay. The glutamate produced by the glutaminase reaction is used by glutamate oxidase to produce α-ketoglutarate, ammonia, and hydrogen peroxide, with this hydrogen peroxide subsequently being used by horseradish peroxidase to produce resorufin in the presence of Amplex UltraRed. The assay buffer consisted of 50 mM HEPES (pH 7.4), 0.25 mM EDTA and 0.1 mM Triton X-100. GAC was incubated with potassium phosphate (10 minutes at room temperature) prior to incubation with inhibitor (10 minutes at room temperature). The final reaction conditions were as follows: 2 nM GAC, 50 mM potassium phosphate, 100 mU/ml glutamate oxidase (Sigma), 1 mM glutamine (Sigma), 100 mU/ml horseradish peroxidase (Sigma), 75 μM Amplex UltraRed (Life Technologies), and 1% (v/v) DMSO. The production of resorufin was monitored on a Perkin Elmer Envision plate reader (excitation 530 nm, emission 590 nm) either in a kinetics or endpoint mode (at 20 minutes). IC50 values were calculated using a four-parameter logistic curve fit.

A549 cells = test: Proliferation Assay (A549 viability, Cell Titer Fluor, 72 hours); type: cell-based; details: Homo sapiens, read-out: EC50 against A549 cell proliferation
Description: A549 cells were routinely maintained in RPMI 1640 media (Gibco catalog number 11875-093) supplemented with 10% dialyzed fetal bovine serum using a humidified incubator (37° C., 5% CO2 and ambient O2). In preparation for the viability assay, cells were inoculated into 384-well black CulturPlates (Perkin Elmer) at a density of 1000 cells/well in a volume of 40 μl. Following a 24-hour incubation at 37° C., 5% CO2 and ambient 02, cells were treated with compound (10 μl) in a final DMSO concentration of 0.5% (v/v). The microplates were then incubated for 72 hours (37° C., 5% CO2 and ambient O2). Cell Titer Fluor (Promega) was subsequently added (10 μl of 6× reagent) and mixed for 15 minutes at room temperature. The plates were then incubated for 30 minutes (37° C., 5% CO2 and ambient O2) and fluorescence was subsequently read on the Perkin Elmer Envision plate reader. EC50 values were calculated using a four-parameter logistic curve fit.

Structure (SMILES)	IC50 [1] [nM]	EC50 (A549 cells) [nM]
NC(=O)c1nnc(N2CCC(c3ccc(NC(=O)Cc4ccccn4)nn3)C2)s1 (stereo not shown) [Example 39, 5-(3-(6-(2-(pyridin-2-yl)acetamido)pyridazin-3-yl)pyrrolidin-1-yl)-1,3,4-thiadiazole-2-carboxamide]	100 to 500	500 to 5000
CNC(=O)c1nnc(N2CCC(c3ccc(NC(=O)Cc4ccccn4)nn3)C2)s1 (stereo not shown) [Example 41, N-methyl-5-(3-(6-(2-(pyridin-2-yl)acetamido)pyridazin-3-yl)pyrrolidin-1-yl)-1,3,4-thiadiazole-2-carboxamide]	100 to 500	100 to 500
O=C(Cc1ccccn1)Nc1ccc([C@@H]2CCN(c3nnc(C(=O)NCc4ccccn4)s3)C2)nn1 [Example 46, (R)-5-(3-(6-(2-(pyridin-2-yl)acetamido)pyridazin-3-yl)pyrrolidin-1-yl)-N-(pyridin-2-ylmethyl)-1,3,4-thiadiazole-2-carboxamide]	< 100	< 100
O=C(Cc1ccccn1)Nc1ccc([C@@H]2CCN(c3nnc(C(=O)NCc4cc(C5CC5)ccn4)s3)C2)nn1 [Example 47, (R)-N-((4-cyclopropylpyridin-2-yl)methyl)-5-(3-(6-(2-(pyridin-2-yl)acetamido)pyridazin-3-yl)pyrrolidin-1-yl)-1,3,4-thiadiazole-2-carboxamide]	< 100	< 100
Cc1cc(C(F)(F)F)cc(CNC(=O)c2nnc(N3CC[C@@H](c4ccc(NC(=O)Cc5ccccn5)nn4)C3)s2)n1 [Example 48, (R)-N-((6-methyl-4-(trifluoromethyl)pyridin-2-yl)methyl)-5-(3-(6-(2-(pyridin-2-yl)acetamido)pyridazin-3-yl)pyrrolidin-1-yl)-1,3,4-thiadiazole-2-carboxamide]	< 100	< 100
Cc1cccc(CC(=O)Nc2ccc(C3CCN(c4nnc(C(=O)NCc5cc(C(F)(F)F)ccn5)s4)C3)nn2)n1 (stereo not shown) [Example 49, 5-(3-(6-(2-(6-methylpyridin-2-yl)acetamido)pyridazin-3-yl)pyrrolidin-1-yl)-N-((4-(trifluoromethyl)pyridin-2-yl)methyl)-1,3,4-thiadiazole-2-carboxamide]	< 100	< 100

The remaining lines, values ahead:

IC50 [1] [nM]	EC50 (A549 cells) [nM]	Structure (SMILES)
< 100	< 100	O=C(Cc1ccccn1)Nc1ccc(C2CCN(c3nnc(C(=O)NCc4cc(C(F)(F)F)ccn4)s3)C2)nn1 (stereo not shown) [Example 38, 5-(3-(6-(2-(pyridin-2-yl)acetamido)pyridazin-3-yl)pyrrolidin-1-yl)-N-((4-(trifluoromethyl)pyridin-2-yl)methyl)-1,3,4-thiadiazole-2-carboxamide]
< 100	< 100	CNC(=O)c1nnc(N2CCC(c3ccc(NC(=O)Cc4cn(-c5cccc(OC(F)(F)F)c5)cn4)nn3)C2)s1 (stereo not shown) [Example 40, N-methyl-5-(3-(6-(2-(1-(3-(trifluoromethoxy)phenyl)-1H-imidazol-4-yl)acetamido)pyridazin-3-yl)pyrrolidin-1-yl)-1,3,4-thiadiazole-2-carboxamide]
< 100	100 to 500	O=C(Cc1ccccn1)Nc1ccc(N2CCC(c3nnc(NC(=O)Cc4cccc(OC(F)(F)F)c4)s3)C2)nn1 (stereo not shown) [Example 42, 2-(pyridin-2-yl)-N-(6-(3-(5-(2-(3-(trifluoromethoxy)phenyl)acetamido)-1,3,4-thiadiazol-2-yl)pyrrolidin-1-yl)pyridazin-3-yl)acetamide]
< 100	< 100	O=C(Cc1ccccn1)Nc1ccc(C2CCN(c3nnc(C(=O)NCc4cccc(OC(F)(F)F)c4)s3)C2)nn1 (stereo not shown) [Example 43, 5-(3-(6-(2-(pyridin-2-yl)acetamido)pyridazin-3-yl)pyrrolidin-1-yl)-N-(3-(trifluoromethoxy)benzyl)-1,3,4-thiadiazole-2-carboxamide]
< 100	< 100	O=C(Cc1ccccn1)Nc1ccc([C@@H]2CCN(c3nnc(C(=O)NCc4cc(C(F)(F)F)ccn4)s3)C2)nn1 [Example 44, (R)-5-(3-(6-(2-(pyridin-2-yl)acetamido)pyridazin-3-yl)pyrrolidin-1-yl)-N-((4-(trifluoromethyl)pyridin-2-yl)methyl)-1,3,4-thiadiazole-2-carboxamide]
